Measured values from article PMC5218480 (PLoS ONE, 2017).

Tested on: MV-4-11 cells
Experiment: Gene expression microarray analysis (Affymetrix PrimeView) and GSEA
Assay type: cell-based, human
Set-up: RFU PODN (11730768_x_at) / Fold change /veh PODN (11730768_x_at) / RFU LINC00158 (11744669_a_at) / Fold change /veh LINC00158 (11744669_a_at) / RFU DUSP10 (11751237_a_at) / Fold change /veh DUSP10 (11751237_a_at) / RFU ID3 (11757404_x_at) / Fold change /veh ID3 (11757404_x_at) / RFU PLEKHG5 (11737974_s_at) / Fold change /veh PLEKHG5 (11737974_s_at) / RFU LRRC4B (11730491_at) / Fold change /veh LRRC4B (11730491_at) / RFU GIMAP4 (11747438_a_at) / Fold change /veh GIMAP4 (11747438_a_at) / RFU KRT8 (11758183_x_at) / Fold change /veh KRT8 (11758183_x_at) / RFU CNN1 (11734310_a_at) / Fold change /veh CNN1 (11734310_a_at) / RFU VPS37D (11726825_at) / Fold change /veh VPS37D (11726825_at) / RFU C10orf10 (11716522_x_at) / Fold change /veh C10orf10 (11716522_x_at) / RFU KIR2DL2 /// KIR2DL4 /// KIR2DL5A /// KIR2DL5B /// KIR2DS1 /// KIR2DS2 /// KIR2DS3 /// KIR2DS4 /// KIR3DL3 /// KIR3DL3 /// KIR3DS1 (11738374_at) / Fold change /veh KIR2DL2 /// KIR2DL4 /// KIR2DL5A /// KIR2DL5B /// KIR2DS1 /// KIR2DS2 /// KIR2DS3 /// KIR2DS4 /// KIR3DL3 /// KIR3DL3 /// KIR3DS1 (11738374_at) / RFU C1QL1 (11718748_at) / Fold change /veh C1QL1 (11718748_at) / RFU TMPRSS4 (11747572_a_at) / Fold change /veh TMPRSS4 (11747572_a_at) / RFU HAMP (11756126_x_at) / Fold change /veh HAMP (11756126_x_at) / RFU RNFT2 (11725882_a_at) / Fold change /veh RNFT2 (11725882_a_at) / RFU NR4A2 (11747474_a_at) / Fold change /veh NR4A2 (11747474_a_at) / RFU ABCC12 (11746883_a_at) / Fold change /veh ABCC12 (11746883_a_at) / RFU TMEM136 (11760407_x_at) / Fold change /veh TMEM136 (11760407_x_at) / RFU CLDN22 /// WWC2 (11732394_at) / Fold change /veh CLDN22 /// WWC2 (11732394_at) / RFU HLA-DPB1 (11760878_x_at) / Fold change /veh HLA-DPB1 (11760878_x_at) / RFU SPINT1 (11716480_a_at) / Fold change /veh SPINT1 (11716480_a_at) / RFU GAP43 (11754022_s_at) / Fold change /veh GAP43 (11754022_s_at) / RFU A4GNT (11735810_at) / Fold change /veh A4GNT (11735810_at) / RFU PRB3 (11715151_x_at) / Fold change /veh PRB3 (11715151_x_at) / RFU TUBB4B (11761932_at) / Fold change /veh TUBB4B (11761932_at) / RFU CAPN14 (11732068_a_at) / Fold change /veh CAPN14 (11732068_a_at) / RFU TMCC2 (11721928_a_at) / Fold change /veh TMCC2 (11721928_a_at) / RFU IRGQ (11745062_a_at) / Fold change /veh IRGQ (11745062_a_at) / RFU FAM174B (11720279_a_at) / Fold change /veh FAM174B (11720279_a_at) / RFU TMPRSS4 (11748680_a_at) / Fold change /veh TMPRSS4 (11748680_a_at) / RFU FAM212B (11763350_a_at) / Fold change /veh FAM212B (11763350_a_at) / RFU PLEKHG5 (11743358_a_at) / Fold change /veh PLEKHG5 (11743358_a_at) / RFU ZSCAN30 (11745921_a_at) / Fold change /veh ZSCAN30 (11745921_a_at) / RFU CMKLR1 (11741424_a_at) / Fold change /veh CMKLR1 (11741424_a_at) / RFU LOC101060620 /// MAPK8IP1 (11723275_at) / Fold change /veh LOC101060620 /// MAPK8IP1 (11723275_at) / RFU SPTSSB (11747773_x_at) / Fold change /veh SPTSSB (11747773_x_at) / RFU PRSS12 (11739890_at) / Fold change /veh PRSS12 (11739890_at) / RFU BIN1 (11741810_x_at) / Fold change /veh BIN1 (11741810_x_at) / RFU WNT11 (11732464_a_at) / Fold change /veh WNT11 (11732464_a_at) / RFU C10orf10 (11716521_a_at) / Fold change /veh C10orf10 (11716521_a_at) / RFU C5orf56 (11738089_at) / Fold change /veh C5orf56 (11738089_at) / RFU CYB561 (11721691_x_at) / Fold change /veh CYB561 (11721691_x_at) / RFU ANKRD19P (11752326_a_at) / Fold change /veh ANKRD19P (11752326_a_at) / RFU OR2T12 /// OR2T33 /// OR2T8 (11738714_s_at) / Fold change /veh OR2T12 /// OR2T33 /// OR2T8 (11738714_s_at) / RFU VCAN (11748164_a_at) / Fold change /veh VCAN (11748164_a_at) / RFU JSRP1 (11732532_at) / Fold change /veh JSRP1 (11732532_at) / RFU KRTAP10-11 (11738290_x_at) / Fold change /veh KRTAP10-11 (11738290_x_at) / RFU MYO3A (11730013_a_at) / Fold change /veh MYO3A (11730013_a_at) / RFU EBF3 (11725865_a_at) / Fold change /veh EBF3 (11725865_a_at) / RFU CAMK2N1 (11719241_x_at) / Fold change /veh CAMK2N1 (11719241_x_at) / RFU C5orf56 (11738088_a_at) / Fold change /veh C5orf56 (11738088_a_at) / RFU OLFML3 (11715873_a_at) / Fold change /veh OLFML3 (11715873_a_at) / RFU LOC100653217 /// NTM (11731650_a_at) / Fold change /veh LOC100653217 /// NTM (11731650_a_at) / RFU MAPK11 (11762145_a_at) / Fold change /veh MAPK11 (11762145_a_at) / RFU FIZ1 (11724087_x_at) / Fold change /veh FIZ1 (11724087_x_at) / RFU OASL (11726364_x_at) / Fold change /veh OASL (11726364_x_at) / RFU SOX15 (11748057_x_at) / Fold change /veh SOX15 (11748057_x_at) / RFU CD79A (11719716_a_at) / Fold change /veh CD79A (11719716_a_at) / RFU HIST1H1D (11736915_at) / Fold change /veh HIST1H1D (11736915_at) / RFU CASKIN2 (11723855_a_at) / Fold change /veh CASKIN2 (11723855_a_at) / RFU LOC730098 (11760151_x_at) / Fold change /veh LOC730098 (11760151_x_at) / RFU OR4N2 (11742367_at) / Fold change /veh OR4N2 (11742367_at) / RFU PRRT2 (11749266_a_at) / Fold change /veh PRRT2 (11749266_a_at) / RFU SNX32 (11753110_a_at) / Fold change /veh SNX32 (11753110_a_at) / RFU CDHR5 (11726645_a_at) / Fold change /veh CDHR5 (11726645_a_at) / RFU RCAN1 (11760418_a_at) / Fold change /veh RCAN1 (11760418_a_at) / RFU FAM167A (11723789_a_at) / Fold change /veh FAM167A (11723789_a_at) / RFU FAM26E (11764081_at) / Fold change /veh FAM26E (11764081_at) / RFU ISYNA1 (11749810_s_at) / Fold change /veh ISYNA1 (11749810_s_at) / RFU ACY1 (11761880_at) / Fold change /veh ACY1 (11761880_at) / RFU 11764098_at / Fold change /veh 11764098_at / RFU SAMD14 (11745864_x_at) / Fold change /veh SAMD14 (11745864_x_at) / RFU NPB (11741838_a_at) / Fold change /veh NPB (11741838_a_at) / RFU TMPRSS6 (11731388_a_at) / Fold change /veh TMPRSS6 (11731388_a_at) / RFU KRTAP10-2 (11738614_at) / Fold change /veh KRTAP10-2 (11738614_at) / RFU ARHGAP8 /// PRR5-ARHGAP8 (11727945_x_at) / Fold change /veh ARHGAP8 /// PRR5-ARHGAP8 (11727945_x_at) / RFU KRTAP5-7 /// NADSYN1 (11734609_at) / Fold change /veh KRTAP5-7 /// NADSYN1 (11734609_at) / RFU RASL12 (11751679_a_at) / Fold change /veh RASL12 (11751679_a_at) / RFU CDKN2B (11736163_a_at) / Fold change /veh CDKN2B (11736163_a_at) / RFU PRF1 (11729649_at) / Fold change /veh PRF1 (11729649_at) / RFU, ZNF638 /// ZNF638-IT1 / Fold change vs veh, ZNF638 /// ZNF638-IT1 / RFU, PANK3 / Fold change vs veh, PANK3 / RFU, SH3YL1 / Fold change vs veh, SH3YL1 / RFU, ZEB2 / Fold change vs veh, ZEB2 / RFU, NRIP1 / Fold change vs veh, NRIP1 / RFU, PTTG1IP / Fold change vs veh, PTTG1IP / RFU, CAPN2 / Fold change vs veh, CAPN2 / RFU, MED14 / Fold change vs veh, MED14 / RFU, SNORA58 / Fold change vs veh, SNORA58 / RFU, C1orf63 / Fold change vs veh, C1orf63 / RFU, LRRFIP1 / Fold change vs veh, LRRFIP1 / RFU, NDUFAF7 / Fold change vs veh, NDUFAF7 / RFU, SLC12A2 / Fold change vs veh, SLC12A2 / RFU, IBTK / Fold change vs veh, IBTK / RFU, ESF1 / Fold change vs veh, ESF1 / Fold change vs veh, TMEM50B / RFU, TAOK1 / Fold change vs veh, TAOK1 / RFU, ACBD3 / Fold change vs veh, ACBD3 / RFU, TMA16 / Fold change vs veh, TMA16 / RFU, RWDD3 / Fold change vs veh, RWDD3 / RFU, BCAT1 / Fold change vs veh, BCAT1 / RFU, EDEM3 / Fold change vs veh, EDEM3 / RFU, TMEM33 / Fold change vs veh, TMEM33 / RFU, WDR75 / Fold change vs veh, WDR75 / RFU, AHCTF1 / Fold change vs veh, AHCTF1 / RFU, TFRC / Fold change vs veh, TFRC / RFU, ZDHHC17 / Fold change vs veh, ZDHHC17 / RFU, NOM1 / Fold change vs veh, NOM1 / RFU, ARL8B / Fold change vs veh, ARL8B / RFU, ZBTB11 / Fold change vs veh, ZBTB11 / RFU, TAMM41 / Fold change vs veh, TAMM41 / RFU, KIAA1704 /// LOC100996395 / Fold change vs veh, KIAA1704 /// LOC100996395 / RFU, ING1 / Fold change vs veh, ING1 / RFU, TRMT61B / Fold change vs veh, TRMT61B / RFU, FUBP3 / Fold change vs veh, FUBP3 / RFU, TP53 / Fold change vs veh, TP53 / RFU, TNKS2 / Fold change vs veh, TNKS2 / RFU, ZFP14 / Fold change vs veh, ZFP14 / RFU, ACTR2 / Fold change vs veh, ACTR2 / RFU, PPP3R1 / Fold change vs veh, PPP3R1 / RFU, PIK3R1 / Fold change vs veh, PIK3R1 / RFU, HNRNPA1 / Fold change vs veh, HNRNPA1 / RFU, RNF170 / Fold change vs veh, RNF170 / RFU, ZNF28 / Fold change vs veh, ZNF28 / RFU, RNGTT / Fold change vs veh, RNGTT / RFU, OGT / Fold change vs veh, OGT / RFU, BRD1 / Fold change vs veh, BRD1 / RFU, MARS / Fold change vs veh, MARS / RFU, ZNF655 / Fold change vs veh, ZNF655 / RFU, FAHD1 / Fold change vs veh, FAHD1 / RFU, BDP1 / Fold change vs veh, BDP1 / RFU, LRRCC1 / Fold change vs veh, LRRCC1 / RFU, ARID1A / Fold change vs veh, ARID1A / RFU, ZNF146 / Fold change vs veh, ZNF146 / RFU, ZNF330 / Fold change vs veh, ZNF330 / RFU, GPN3 / Fold change vs veh, GPN3 / RFU, C9orf123 / Fold change vs veh, C9orf123 / RFU, N4BP2L2 / Fold change vs veh, N4BP2L2 / RFU, ARFIP1 / Fold change vs veh, ARFIP1 / RFU, FAM179B / Fold change vs veh, FAM179B / RFU, BCL10 / Fold change vs veh, BCL10 / RFU, UHRF1BP1L / Fold change vs veh, UHRF1BP1L / RFU, BET1 / Fold change vs veh, BET1 / RFU, CNOT2 / Fold change vs veh, CNOT2 / RFU, ZNF268 / Fold change vs veh, ZNF268 / Fold change vs veh, ZNF507 / RFU, DGCR2 / Fold change vs veh, DGCR2 / RFU, WDSUB1 / Fold change vs veh, WDSUB1 / Fold change vs veh, HSP90B1 /// MIR3652 / RFU, ADSS / Fold change vs veh, ADSS / RFU, GK / Fold change vs veh, GK / RFU, ZNF148 / Fold change vs veh, ZNF148 / RFU, TAF9 / Fold change vs veh, TAF9 / RFU, SLC1A5 / Fold change vs veh, SLC1A5 / RFU, SLMO2 / Fold change vs veh, SLMO2 / RFU, ABCC4 / Fold change vs veh, ABCC4 / RFU, LOC101060439 /// RAP1B / Fold change vs veh, LOC101060439 /// RAP1B / RFU, RFX7 / Fold change vs veh, RFX7 / RFU, GTPBP10 / Fold change vs veh, GTPBP10 / RFU, CNEP1R1 / Fold change vs veh, CNEP1R1 / RFU, BIVM-ERCC5 /// ERCC5 / Fold change vs veh, BIVM-ERCC5 /// ERCC5 / RFU, ILF3 / Fold change vs veh, ILF3 / RFU 11762660_at / Fold change /veh 11762660_at / RFU VCAN (11757783_s_at) / Fold change /veh VCAN (11757783_s_at) / RFU DDX43 (11728927_at) / Fold change /veh DDX43 (11728927_at) / RFU KRT8 (11758188_x_at) / Fold change /veh KRT8 (11758188_x_at) / RFU NKD1 (11759106_at) / Fold change /veh NKD1 (11759106_at) / RFU SRD5A1 (11742802_a_at) / Fold change /veh SRD5A1 (11742802_a_at) / RFU TPSAB1 /// TPSB2 (11721975_s_at) / Fold change /veh TPSAB1 /// TPSB2 (11721975_s_at) / RFU GSTM3 (11746129_a_at) / Fold change /veh GSTM3 (11746129_a_at) / RFU IL23R (11737362_x_at) / Fold change /veh IL23R (11737362_x_at) / RFU TMEM51 (11727254_a_at) / Fold change /veh TMEM51 (11727254_a_at) / RFU PIWIL2 (11732686_x_at) / Fold change /veh PIWIL2 (11732686_x_at) / RFU ORM1 (11744905_x_at) / Fold change /veh ORM1 (11744905_x_at) / RFU CCDC152 (11743942_at) / Fold change /veh CCDC152 (11743942_at) / RFU ECM1 (11717891_a_at) / Fold change /veh ECM1 (11717891_a_at) / RFU IL23R (11748794_a_at) / Fold change /veh IL23R (11748794_a_at) / RFU TNFAIP8L3 (11732012_x_at) / Fold change /veh TNFAIP8L3 (11732012_x_at) / RFU MBOAT4 (11741988_at) / Fold change /veh MBOAT4 (11741988_at) / RFU 11764193_at / Fold change /veh 11764193_at / RFU TMEM53 (11763286_at) / Fold change /veh TMEM53 (11763286_at) / RFU MAGEB2 (11727129_at) / Fold change /veh MAGEB2 (11727129_at) / RFU TMEM200A (11744735_a_at) / Fold change /veh TMEM200A (11744735_a_at) / RFU CCDC152 (11751479_a_at) / Fold change /veh CCDC152 (11751479_a_at) / RFU FAM211A (11726209_a_at) / Fold change /veh FAM211A (11726209_a_at) / RFU RGS16 (11746705_a_at) / Fold change /veh RGS16 (11746705_a_at) / RFU VCAN (11755009_s_at) / Fold change /veh VCAN (11755009_s_at) / RFU RHOB (11743442_s_at) / Fold change /veh RHOB (11743442_s_at) / RFU RGS16 (11720943_a_at) / Fold change /veh RGS16 (11720943_a_at) / RFU RGS16 (11720944_at) / Fold change /veh RGS16 (11720944_at) / RFU, VPS4B / Fold change vs veh, VPS4B / RFU, CREB1 / Fold change vs veh, CREB1 / RFU, DNAJC13 / Fold change vs veh, DNAJC13 / RFU, GNAQ / Fold change vs veh, GNAQ / RFU, CDK5R1 / Fold change vs veh, CDK5R1 / RFU, ZRANB3 / Fold change vs veh, ZRANB3 / RFU, CUL4A / Fold change vs veh, CUL4A / RFU, CCNY / Fold change vs veh, CCNY / RFU, UFL1 / Fold change vs veh, UFL1 / RFU, COG3 / Fold change vs veh, COG3 / RFU, DIAPH2 / Fold change vs veh, DIAPH2 / RFU, SKA2 / Fold change vs veh, SKA2 / RFU, AFF3 / Fold change vs veh, AFF3 / RFU, LMF1 / Fold change vs veh, LMF1 / RFU, IPO11 / Fold change vs veh, IPO11 / RFU, DFFB / Fold change vs veh, DFFB / RFU, FOXP1 / Fold change vs veh, FOXP1 / RFU, CARD8 / Fold change vs veh, CARD8 / RFU, STRN3 / Fold change vs veh, STRN3 / RFU, ADK / Fold change vs veh, ADK / RFU, RASSF2 / Fold change vs veh, RASSF2 / RFU, WIPF1 / Fold change vs veh, WIPF1 / RFU, LARP1B / Fold change vs veh, LARP1B / RFU, RASA1 / Fold change vs veh, RASA1 / RFU, RB1 / Fold change vs veh, RB1 / RFU, PPFIA1 / Fold change vs veh, PPFIA1 / RFU, MAT2A / Fold change vs veh, MAT2A / RFU, CCT5 / Fold change vs veh, CCT5 / RFU, WDR92 / Fold change vs veh, WDR92 / RFU, CUX1 / Fold change vs veh, CUX1 / RFU, TTC7A / Fold change vs veh, TTC7A / RFU, TMEM135 / Fold change vs veh, TMEM135 / RFU, DEPTOR / Fold change vs veh, DEPTOR / RFU, CPM / Fold change vs veh, CPM / RFU, DNAJB6 / Fold change vs veh, DNAJB6 / RFU, CACNA2D3 / Fold change vs veh, CACNA2D3 / RFU, DTX4 / Fold change vs veh, DTX4 / RFU, TFCP2 / Fold change vs veh, TFCP2 / RFU, GMCL1 /// GMCL1P1 / Fold change vs veh, GMCL1 /// GMCL1P1 / RFU, AEBP2 / Fold change vs veh, AEBP2 / RFU, SNHG1 /// SNORD22 /// SNORD25 /// SNORD26 /// SNORD27 /// SNORD28 /// SNORD29 /// SNORD31 / Fold change vs veh, SNHG1 /// SNORD22 /// SNORD25 /// SNORD26 /// SNORD27 /// SNORD28 /// SNORD29 /// SNORD31 / Fold change (Aza/veh), C12orf56 (ProbeSet 11735607_a_at) / Fold change (ACY-1035/veh), C12orf56 (ProbeSet 11735607_a_at) / Fold change (Aza/veh), FGFR1OP (ProbeSet 11751329_s_at) / Fold change (ACY-1035/veh), FGFR1OP (ProbeSet 11751329_s_at) / Fold change (Aza/veh), VPS36 (ProbeSet 11739960_a_at) / Fold change (ACY-1035/veh), VPS36 (ProbeSet 11739960_a_at) / RFU SYPL1 (11715823_x_at) / Fold change /veh SYPL1 (11715823_x_at) / RFU IGFBP7 (11715501_s_at) / Fold change /veh IGFBP7 (11715501_s_at) / RFU REEP3 (11722064_at) / Fold change /veh REEP3 (11722064_at) / RFU IGLL1 (11728026_x_at) / Fold change /veh IGLL1 (11728026_x_at): dose or concentration left out as unconfirmed
Conditions: ProbeSet 11734937_a_at; LIST B

Nc1ccc(-c2cccs2)cc1NC(=O)c1ccc2c(c1)cc(C1CC1)n2CCN1CCOCC1 [ACY-1035]
Fold change vs veh, CNOT2: 0.83
